Reference: patent EP4603105A1, “PHARMACEUTICAL COMPOSITION CONTAINING CYCLIC COMPOUND HAVING SELECTIVE KRAS INHIBITORY EFFECT AGAINST HRAS AND NRAS” (CHUGAI SEIYAKU KABUSHIKI KAISHA, priority 2022, dated 2024)

Tests used:
[1] = biological target: GDP-bound NRAS wild-type protein (Homo sapiens, UniProt P01111); experiment: Binding to NRAS by surface plasmon resonance (SPR), KD and KD ratio to KRAS; details: ratio of KD for GDP-bound NRAS wild-type protein to KD for KRAS
How it was run: (§1)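 SPR, 30°C: Avi-biotin RAS·GDP captured via Biotin CAPture (~100–300 RU); running buffer HBS pH 7.4, 1 mM DTT, 10 mM MgCl2, 0.01% Tween 20, 10 µM GDP, 4% DMSO. Single-cycle kinetics, 100 µL/min, 75 s injections; 1:1 model → KD.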

HRAS wild-type protein = HRAS wild-type protein (Homo sapiens, UniProt P01112); experiment: Binding to HRAS by surface plasmon resonance (SPR), KD and KD ratio to KRAS; details: ratio of KD for HRAS wild-type protein to KD for KRAS
How it was run: as §1

[2] = system: human lung cancer strain NCI-H441; format: cell-based
How it was run: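 Proliferation was scored by […] measured after the reagent was added to cultures kept at 37°C in 5% carbon dioxide.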

Chain of GDP-bound NRAS wild-type protein (P01111 whole entry): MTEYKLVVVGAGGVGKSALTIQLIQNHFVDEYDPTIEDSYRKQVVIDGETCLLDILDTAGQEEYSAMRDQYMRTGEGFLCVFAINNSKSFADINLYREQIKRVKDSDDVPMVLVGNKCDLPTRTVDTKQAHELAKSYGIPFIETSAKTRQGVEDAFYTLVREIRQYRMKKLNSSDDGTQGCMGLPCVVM
Chain of HRAS wild-type protein (P01112 whole entry): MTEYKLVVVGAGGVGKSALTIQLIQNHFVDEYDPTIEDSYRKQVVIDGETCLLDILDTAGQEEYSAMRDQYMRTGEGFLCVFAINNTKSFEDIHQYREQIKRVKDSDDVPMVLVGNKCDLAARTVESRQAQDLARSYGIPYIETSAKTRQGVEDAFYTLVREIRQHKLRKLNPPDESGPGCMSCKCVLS

## CCC[C@H]1C(=O)N[C@@H](C2CCCCC2)C(=O)N(C)CC(=O)N(C)[C@H]2C/C=C\CCN(C2=O)[C@@H](Cc2ccc(C(F)(F)F)cc2)C(=O)N(C)CC(=O)N[C@@H](CCc2ccc(C(F)(F)F)c(Cl)c2)C(=O)N2C[C@H](OCC)C[C@H]2C(=O)NC2(CC(C)(C)C2)C(=O)N(C)[C@@H](C2CCCC2)C(=O)N(C)[C@H](C(=O)N(C)C)CC(=O)N1C [PP2996]
[1]
  NRAS /KRAS: AA (a compound having 20 or more is denoted as AA)
HRAS wild-type protein
  HRAS /KRAS: A (a compound having 10 or more and less than 20 is denoted as A)
[2]
  IC50: 13.7 nM

## CCC[C@H]1C(=O)N[C@@H]([C@@H](C)CC)C(=O)N(C)CC(=O)N(C)[C@H]2C/C=C\CCN(C2=O)[C@@H](Cc2ccc(C)cc2)C(=O)N(C)CC(=O)N[C@@H](CCc2cc(F)c(C(F)(F)F)c(F)c2)C(=O)N2CC3(CC3)C[C@H]2C(=O)NC2(CC(C)(C)C2)C(=O)N(C)[C@@H](CC(C)(C)C)C(=O)N(C)[C@H](C(=O)N(C)C)CC(=O)N1C [PP2997]
[1]
  NRAS /KRAS: A (a compound having 10 or more and less than 20 is denoted as A)
HRAS wild-type protein
  HRAS /KRAS: B (a compound having 3 or more and less than 10 is denoted as B)
[2]
  IC50: 4.1 nM

## CCC[C@H]1C(=O)N[C@@H](C2CCCC2)C(=O)N(C)CC(=O)N(C)[C@H]2C/C=C\CCN(C2=O)[C@@H](Cc2ccc(C)cc2)C(=O)N(C)CC(=O)N[C@@H](CCc2cc(F)c(C(F)(F)F)c(F)c2)C(=O)N2CC3(CC3)C[C@H]2C(=O)NC2(CC(C)(C)C2)C(=O)N(C)[C@@H](CC(C)(C)C)C(=O)N(C)[C@H](C(=O)N(C)C)CC(=O)N1C [PP2999]
[1]
  NRAS /KRAS: AA (a compound having 20 or more is denoted as AA)
HRAS wild-type protein
  HRAS /KRAS: A (a compound having 10 or more and less than 20 is denoted as A)
[2]
  IC50: 11.4 nM

## CCC[C@H]1C(=O)N[C@@H](C2CCOCC2)C(=O)N(C)CC(=O)N(C)[C@H]2C/C=C\CCN(C2=O)[C@@H](Cc2ccc(C(F)(F)F)cc2)C(=O)N(C)CC(=O)N[C@@H](CCc2ccc(C(F)(F)F)c(Cl)c2)C(=O)N2C[C@H](OCC)C[C@H]2C(=O)NC2(CC(C)(C)C2)C(=O)N(C)[C@@H](C2CCCC2)C(=O)N(C)[C@H](C(=O)N(C)C)CC(=O)N1C [PP3000]
[1]
  NRAS /KRAS: AA (a compound having 20 or more is denoted as AA)
HRAS wild-type protein
  HRAS /KRAS: A (a compound having 10 or more and less than 20 is denoted as A)
[2]
  IC50: 63 nM

## CCC[C@H]1C(=O)N[C@@H]([C@@H](C)CC)C(=O)N(C)CC(=O)N(C)[C@H]2C/C=C\CCN(C2=O)[C@@H](Cc2ccc(C)cc2)C(=O)N(C)CC(=O)N[C@@H](CCc2cc(F)c(C(F)(F)F)c(F)c2)C(=O)N2CC3(CC3)C[C@H]2C(=O)NC2(CC(C)(C)C2)C(=O)N(C)[C@@H](CC(F)(F)F)C(=O)N(C)[C@H](C(=O)N(C)C)CC(=O)N1C [PP3003]
[1]
  NRAS /KRAS: AA (a compound having 20 or more is denoted as AA)
HRAS wild-type protein
  HRAS /KRAS: A (a compound having 10 or more and less than 20 is denoted as A)
[2]
  IC50: 31.2 nM

## CCC[C@H]1C(=O)N[C@@H]([C@@H](C)CC)C(=O)N(C)CC(=O)N(C)[C@H]2C/C=C\CCN(C2=O)[C@@H](Cc2ccc(C)cc2)C(=O)N(C)CC(=O)N[C@@H](CCc2ccc(C(F)(F)F)c(OC)c2)C(=O)N2C[C@H](OCC)C[C@H]2C(=O)NC2(CC(C)(C)C2)C(=O)N(C)[C@@H]([C@@H](C)CC)C(=O)N(C)[C@H](C(=O)N(C)C)CC(=O)N1C [PP3006]
[1]
  NRAS /KRAS: A (a compound having 10 or more and less than 20 is denoted as A)
HRAS wild-type protein
  HRAS /KRAS: A (a compound having 10 or more and less than 20 is denoted as A)
[2]
  IC50: 14.1 nM

## CCC[C@H]1C(=O)N[C@@H]([C@@H](C)CC)C(=O)N(C)CC(=O)N(C)[C@H]2C/C=C\CCN(C2=O)[C@@H](Cc2ccc(C)cc2)C(=O)N(C)CC(=O)N[C@@H](CCc2ccc(C(F)(F)F)c(OC)c2)C(=O)N2CC3(CC3)C[C@H]2C(=O)NC2(CC(C)(C)C2)C(=O)N(C)[C@@H](CC(F)(F)F)C(=O)N(C)[C@H](C(=O)N(C)C)CC(=O)N1C [PP3012]
[1]
  NRAS /KRAS: A (a compound having 10 or more and less than 20 is denoted as A)
HRAS wild-type protein
  HRAS /KRAS: A (a compound having 10 or more and less than 20 is denoted as A)
[2]
  IC50: 74.8 nM

## CCC[C@H]1C(=O)N[C@@H](C2CCCCC2)C(=O)N(C)CC(=O)N(C)[C@H]2C/C=C\CCN(C2=O)[C@@H](Cc2ccc(C(F)(F)F)cc2)C(=O)N(C)CC(=O)N[C@@H](CCc2ccc(C(F)(F)F)c(Cl)c2)C(=O)N2C[C@H](OCC)C[C@H]2C(=O)NC2(CC(C)(C)C2)C(=O)N(C)[C@@H](CC(C)(C)C)C(=O)N(C)[C@H](C(=O)N(C)C)CC(=O)N1C [PP3014]
[1]
  NRAS /KRAS: AA (a compound having 20 or more is denoted as AA)
HRAS wild-type protein
  HRAS /KRAS: A (a compound having 10 or more and less than 20 is denoted as A)
[2]
  IC50: 20.6 nM

## CCC[C@H]1C(=O)N[C@@H](C2CCCCC2)C(=O)N(C)CC(=O)N(C)[C@H]2C/C=C\CCN(C2=O)[C@@H](Cc2ccc(C(F)(F)F)cc2)C(=O)N(C)CC(=O)N[C@@H](CCc2ccc(C(F)(F)F)c(Cl)c2)C(=O)N2C[C@H](OCC)C[C@H]2C(=O)NC2(CC(C)(C)C2)C(=O)N(C)[C@@H]([C@@H](C)CC)C(=O)N(C)[C@H](C(=O)N(C)C)CC(=O)N1C [PP3015]
[1]
  NRAS /KRAS: AA (a compound having 20 or more is denoted as AA)
HRAS wild-type protein
  HRAS /KRAS: A (a compound having 10 or more and less than 20 is denoted as A)
[2]
  IC50: 103 nM

## CCC[C@H]1C(=O)N[C@@H](C2CCCCC2)C(=O)N(C)CC(=O)N(C)[C@H]2C/C=C\CCN(C2=O)[C@@H](Cc2ccc(C(F)(F)F)cc2)C(=O)N(C)CC(=O)N[C@@H](CCc2ccc(C(F)(F)F)c(Cl)c2)C(=O)N2C[C@H](OCC)C[C@H]2C(=O)NC2(CC(C)(C)C2)C(=O)N(C)[C@@H](CC(C)C)C(=O)N(C)[C@H](C(=O)N(C)C)CC(=O)N1C [PP3017]
[1]
  NRAS /KRAS: AA (a compound having 20 or more is denoted as AA)
HRAS wild-type protein
  HRAS /KRAS: A (a compound having 10 or more and less than 20 is denoted as A)
[2]
  IC50: 46.3 nM

## CCC[C@H]1C(=O)N[C@@H](C2CCOCC2)C(=O)N(C)CC(=O)N(C)[C@H]2C/C=C\CCN(C2=O)[C@@H](Cc2ccc(C(F)(F)F)cc2)C(=O)N(C)CC(=O)N[C@@H](CCc2ccc(C(F)(F)F)c(Cl)c2)C(=O)N2C[C@H](OCC)C[C@H]2C(=O)NC2(CC(C)(C)C2)C(=O)N(C)[C@@H](CC(C)(C)C)C(=O)N(C)[C@H](C(=O)N(C)C)CC(=O)N1C [PP3022]
[1]
  NRAS /KRAS: AA (a compound having 20 or more is denoted as AA)
HRAS wild-type protein
  HRAS /KRAS: A (a compound having 10 or more and less than 20 is denoted as A)
[2]
  IC50: 51.4 nM

## CCC(CC)[C@H]1C(=O)N(C)[C@H](C(=O)N(C)C)CC(=O)N(C)[C@@H](COC)C(=O)N[C@@H]([C@@H](C)CC)C(=O)N(C)CC(=O)N(C)[C@H]2C/C=C\CCN(C2=O)[C@@H](Cc2ccc(C(F)(F)F)cc2)C(=O)N(C)CC(=O)N[C@@H](CCc2cc(F)c(C(F)(F)F)c(F)c2)C(=O)N2CCCCC[C@H]2C(=O)NC2(CC(C)(C)C2)C(=O)N1C [PP3030]
[1]
  NRAS /KRAS: AA (a compound having 20 or more is denoted as AA)
HRAS wild-type protein
  HRAS /KRAS: A (a compound having 10 or more and less than 20 is denoted as A)
[2]
  IC50: 22.4 nM

## CCC[C@H]1C(=O)N[C@@H]([C@@H](C)CC)C(=O)N(C)CC(=O)N(C)[C@H]2C/C=C\CCN(C2=O)[C@@H](Cc2ccc(C(F)(F)F)cc2)C(=O)N(C)CC(=O)N[C@@H](CCc2ccc(Cl)c(Cl)c2)C(=O)N2CCCCC[C@H]2C(=O)NC2(CC(C)(C)C2)C(=O)N(C)[C@@H](C(CC)CC)C(=O)N(C)[C@H](C(=O)N(C)C)CC(=O)N1C [PP3031]
[1]
  NRAS /KRAS: AA (a compound having 20 or more is denoted as AA)
HRAS wild-type protein
  HRAS /KRAS: A (a compound having 10 or more and less than 20 is denoted as A)
[2]
  IC50: 94.2 nM

## CCO[C@@H]1C[C@H]2C(=O)NC3(CC(C)(C)C3)C(=O)N(C)[C@@H](C(CC)CC)C(=O)N(C)[C@H](C(=O)N(C)C)CC(=O)N(C)[C@H]3CCCCCCc4ccc(cc4)C[C@@H](C(=O)N(C)CC(=O)N[C@@H](CCc4ccc(C(F)(F)F)c(OC)c4)C(=O)N2C1)N1CC/C=C\C[C@@H](C1=O)N(C)C(=O)CN(C)C(=O)[C@H]([C@@H](C)CC)NC3=O [PP3032]
[1]
  NRAS /KRAS: AA (a compound having 20 or more is denoted as AA)
HRAS wild-type protein
  HRAS /KRAS: A (a compound having 10 or more and less than 20 is denoted as A)
[2]
  IC50: 2.1 nM

## CCO[C@@H]1C[C@H]2C(=O)NC3(CCC3)C(=O)N(C)[C@@H](C3CCCC3)C(=O)N(C)[C@H](C(=O)N3CCCCC3)CC(=O)N(C)[C@H]3CCCCCCc4ccc(cc4)C[C@@H](C(=O)N(C)CC(=O)N[C@@H](CCc4ccc(C(F)(F)F)c(OC)c4)C(=O)N2C1)N1CC/C=C\C[C@@H](C1=O)N(C)C(=O)CN(C)C(=O)[C@H]([C@@H](C)CC)NC3=O [PP3033]
[1]
  NRAS /KRAS: A (a compound having 10 or more and less than 20 is denoted as A)
HRAS wild-type protein
  HRAS /KRAS: B (a compound having 3 or more and less than 10 is denoted as B)
[2]
  IC50: 4.7 nM

## CCO[C@@H]1C[C@H]2C(=O)NC3(CC(C)(C)C3)C(=O)N(C)[C@@H](C3CCCC3)C(=O)N(C)[C@H](C(=O)N3CCCC3)CC(=O)N(C)[C@H]3CCCCCCc4ccc(cc4)C[C@@H](C(=O)N(C)CC(=O)N[C@@H](CCc4ccc(C(F)(F)F)c(OC)c4)C(=O)N2C1)N1CC/C=C\C[C@@H](C1=O)N(C)C(=O)CN(C)C(=O)[C@H]([C@@H](C)CC)NC3=O [PP3034]
[1]
  NRAS /KRAS: A (a compound having 10 or more and less than 20 is denoted as A)
HRAS wild-type protein
  HRAS /KRAS: B (a compound having 3 or more and less than 10 is denoted as B)
[2]
  IC50: 5.3 nM
